In patent US11220479B2, “Glucosylceramide synthase inhibitors and therapeutic methods using the same” (THE REGENTS OF THE UNIVERSITY OF MICHIGAN, priority 2019, dated 2022):
Like-named read-outs stand apart in the source and are kept apart here.

Key:
[1] = target: T1, glucosylceramide synthase (GCS) (Canis lupus familiaris, UniProt A0A8I3MXG6); experiment: GCS inhibition in MDCKII cells (inhibition of GlcCer production in whole wild-type MDCKII cells); assay type: cell-based; conditions: read-out: MDCK IC50
T1 construct: endogenous in cells; host or cells: parental (wild-type) MDCKII cells
T1 sequence (A0A8I3MXG6 1-394): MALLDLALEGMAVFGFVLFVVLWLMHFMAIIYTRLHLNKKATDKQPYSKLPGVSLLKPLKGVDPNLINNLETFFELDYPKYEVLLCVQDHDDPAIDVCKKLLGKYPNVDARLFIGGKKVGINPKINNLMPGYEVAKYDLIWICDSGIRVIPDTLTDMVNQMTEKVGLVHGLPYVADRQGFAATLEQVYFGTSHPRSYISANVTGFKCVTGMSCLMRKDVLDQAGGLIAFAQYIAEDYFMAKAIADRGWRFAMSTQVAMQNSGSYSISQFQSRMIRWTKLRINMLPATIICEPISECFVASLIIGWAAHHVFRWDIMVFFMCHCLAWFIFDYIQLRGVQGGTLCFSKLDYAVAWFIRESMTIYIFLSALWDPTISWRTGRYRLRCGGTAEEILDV

[2] = Half-life when incubated with mouse liver microsomes (MLM); assay type: in vitro ADME; conditions: read-out: MLM T½
Method: ^a Inhibition of GlcCer production in whole wild-type MDCKII cells. ^bHalf-life when incubated with mouse liver microsomes. ^cAreas under the drug concentration curve after single IP dose in mice (10 mg/kg). ^dReduction in brain levels of glucosylceramide in CBE mice after 14 days of qd dosing with test drug administered IP. NC=no change.

[3] = IP PK: areas under the drug concentration curve after single IP dose in mice; assay type: in vivo; conditions: mice, single IP dose 10 mg/kg; for AUC: mouse, plasma
[4] = mouse, liver microsomes, Table 2, Cl vs H comparison
[5] = inhibition of GlcCer production in whole wild-type MDCKII cells, 24 hours
[6] = half-life when incubated with mouse liver microsomes

IC50 ([1]; Table 2, Cl vs H comparison) | half-life [2, 4] | IC50 [1, 5] | half-life [2, 6] | IP PK Brain AUC [3] | AUC [3] | Compound
– | – | 3.8 nM | 18 min | 997 ng·h/mL | 401 ng·h/mL | O=C(N[C@H](CN1CCCC1)[C@H](O)c1cccc(Cl)c1)OC1Cc2ccccc2C1 [Example 6, 2,3-dihydro-1H-inden-2-yl ((1R,2R)-1-(3-chlorophenyl)-1-hydroxy-3-(pyrrolidin-1-yl)propan-2-yl)carbamate]
– | – | 0.54 nM | 91 min | – | – | O=C(CC1Cc2ccccc2C1)N[C@H](CN1CCCC1)[C@H](O)c1ccc(C2CC2)c(Cl)c1 [Example 8, N-((1R,2R)-1-(3-chloro-4-cyclopropylphenyl)-1-hydroxy-3-(pyrrolidin-1-yl)propan-2-yl)-2-(2,3-dihydro-1H-inden-2-yl)acetamide]
– | – | 8.7 nM | 12 min | 940 ng·h/mL | 289 ng·h/mL | O=C(CC1Cc2ccccc2C1)N[C@H](CN1CC[C@@H](F)C1)[C@H](O)c1cccc(Cl)c1 [Example 10, N-((1R,2R)-1-(3-chlorophenyl)-3-((R)-3-fluoropyrrolidin-1-yl)-1-hyroxypropan-2-yl)-2-(2,3-dihydro-1H-inden-2-yl)acetamide]
– | – | 0.63 nM | 5.5 min | 178 ng·h/mL | 397 ng·h/mL | O=C(CC1Cc2ccccc2C1)N[C@H](CN1CC[C@@H](F)C1)[C@H](O)c1ccc(OC2CC2)c(Cl)c1 [Example 11, N-((1R,2R)-1-(3-chloro-4-cyclopropoxyphenyl)-3-((R)-3-fluoropyrrolidin-1-yl)-1-hydroxypropan-2-yl)-2-(2,3-dihydro-1H-inden-2-yl)acetamide]
– | – | 0.71 nM | 187 min | 216 ng·h/mL | 535 ng·h/mL | O=C(CC1Cc2ccccc2C1)N[C@H](CN1CCCC1)[C@H](O)c1ccc(OC(F)F)c(Cl)c1 [Example 13, N-((1R,2R)-1-(3-chloro-4-(difluoromethoxy)phenyl)-1-hydroxy-3-(pyrrolidin-1-yl)propan-2-yl)-2-(2,3-dihydro-1H-inden-2-yl)acetamide]
– | – | 9.2 nM | – | – | 324 ng·h/mL | CC1(OC(=O)N[C@H](CN2CCCC2)[C@H](O)c2cccc(Cl)c2)Cc2ccccc2C1 [Example 14, 2-methyl-2,3-dihydro-1H-inden-2-yl ((1R,2R)-1-(3-chlorophenyl)-1-hydroxy-3-(pyrrolidin-1-yl)propan-2-yl)carbamate]
– | – | 19.5 nM | 0.8 min | 2656 ng·h/mL | 913 ng·h/mL | O=C(N[C@H](CN1CC[C@@H](F)C1)[C@H](O)c1cccc(Cl)c1)OC1Cc2ccccc2C1.O=C(O)C(=O)O [Example 15, 2,3-dihydro-1H-inden-2-yl ((1R,2R)-1-(3-chlorophenyl)-3-((R)-3-fluoropyrrolidin-1-yl)-1-hydroxypropan-2-yl)carbamate oxalate]
– | – | 6.8 nM | 54 min | – | – | O=C(CC1Cc2ccccc2C1)N[C@H](CN1CCC1)[C@H](O)c1cccc(Cl)c1 [Example 16, N-((1R,2R)-3-(azetidin-1-yl)-1-(3-chlorophenyl)-1-hydroxypropan-2-yl)-2-(2,3-dihydro-1H-inden-2-yl)acetamide]
– | – | 81.5 nM | – | – | – | COc1c(Cl)cccc1[C@@H](O)[C@@H](CN1CCCC1)NC(=O)CC1Cc2ccccc2C1 [Example 18, N-((1R,2R)-1-(3-chloro-2-methoxyphenyl)-1-hydroxy-3-(pyrrolidin-1-yl)propan-2-yl)-2-(2,3-dihydro-1H-inden-2-yl)acetamide]
– | – | 0.43 nM | 7.1 min | – | – | COc1ccc(Cl)cc1[C@@H](O)[C@@H](CN1CCCC1)NC(=O)CC1Cc2ccccc2C1 [Example 19, N-((1R,2R)-1-(5-chloro-2-methoxyphenyl)-1-hydroxy-3-(pyrrolidin-1-yl)propan-2-yl)-2-(2,3-dihydro-1H-inden-2-yl)acetamide]
– | – | 2.1 nM | 6.5 min | – | – | O=C(CC1Cc2ccccc2C1)N[C@H](CN1CCCC1)[C@H](O)c1cc(Cl)cc(OC2CC2)c1 [Example 20, N-((1R,2R)-1-(3-chloro-5-cyclopropoxyphenyl)-1-hydroxy-3-(pyrrolidin-1-yl)propan-2-yl)-2-(2,3-dihydro-1H-inden-2-yl)acetamide]
– | – | 24.1 nM | > 1000 min | – | – | CC(C)(C)c1ccc([C@@H](O)[C@@H](CN2CCCC2)NC(=O)CC2Cc3ccccc3C2)cc1Cl [Example 21, N-((1R,2R)-1-(4-(tert-butyl)-3-chlorophenyl)-1-hydroxy-3-(pyrrolidin-1-yl)propan-2-yl)-2-(2,3-dihydro-1H-inden-2-yl)acetamide]
– | – | 141 nM | 4.6 min | – | – | O=C(CC1Cc2ccccc2C1)N[C@H](CN1CCCC1)[C@H](O)c1cccc(Cl)c1F [Example 22, N-((1R,2R)-1-(3-chloro-2-fluorophenyl)-1-hydroxy-3-(pyrrolidin-1-yl)propan-2-yl)-2-(2,3-dihydro-1H-inden-2-yl)acetamide]

The remaining lines, values behind:

Compound | IC50 ([1]; Table 2, Cl vs H comparison) | half-life [2, 4] | IC50 [1, 5] | half-life [2, 6] | IP PK Brain AUC [3] | AUC [3]
O=C(CC1Cc2ccccc2C1)N[C@H](CN1CCCC1)[C@H](O)c1ccccc1 [Comp Ex. 1, reference compound] | 6.5 nM | 15 min | – | – | – | –
CC(C)(C)Oc1ccc([C@@H](O)[C@@H](CN2CCCC2)NC(=O)CC2Cc3ccccc3C2)cc1 [Comp. Ex. 2, reference compound] | 2.5 nM | 120 min | – | – | – | –
O=C(CC1Cc2ccccc2C1)N[C@H](CN1CCCC1)[C@H](O)c1ccc(OC(F)(F)F)cc1 [Comp. Ex. 3, reference compound] | – | 251 min | – | – | – | –
O=C(CC1Cc2ccccc2C1)N[C@H](CN1CCCC1)[C@H](O)c1ccc(OC2CC2)cc1 [Comp. Ex. 4, reference compound] | 1.7 nM | 3.8 min | – | – | – | –
CC1(Oc2ccc([C@@H](O)[C@@H](CN3CCCC3)NC(=O)CC3Cc4ccccc4C3)cc2)COC1 [Comp. Ex. 5, reference compound] | 7.9 nM | 24 min | – | – | – | –
CC1(C)COc2cc([C@@H](O)[C@@H](CN3CCCC3)NC(=O)CC3Cc4ccccc4C3)ccc2O1 [Comp. Ex. 7, reference compound] | 1 nM | 29 min | – | – | – | –
O=C(CC1Cc2ccccc2C1)N[C@H](CN1CCCC1)[C@H](O)c1ccc(C2CC2)cc1 [Comp. Ex. 8, reference compound] | 3.9 nM | 56 min | – | – | – | –
O=C(CC1Cc2ccccc2C1)N[C@H](CN1CCCC1)[C@H](O)c1ccc(OC(F)F)cc1 [Comp. Ex. 9, reference compound] | – | 38 min | – | – | – | –
COc1ccccc1[C@@H](O)[C@@H](CN1CCCC1)NC(=O)CC1Cc2ccccc2C1 [Comp. Ex. 19, reference compound] | 4.8 nM | – | – | – | – | –
O=C(CC1Cc2ccccc2C1)N[C@H](CN1CCCC1)[C@H](O)c1ccc(OC(F)(F)F)c(Cl)c1 [Example 3, N-((1R,2R)-1-(3-chloro-4-(trifluoromethoxy)phenyl)-1-hydroxy-3-(pyrrolidin-1-yl)propan-2-yl)-2-(2,3-dihydro-1H-inden-2-yl)acetamide] | – | – | 4.1 nM | 316 min | – | –
[2H]C([2H])([2H])N(C(=O)CC1Cc2ccccc2C1)[C@H](CN1CCCC1)[C@H](O)c1cccc(Cl)c1 [Example 17, N-((1R,2R)-1-(3-chlorophenyl)-1-hydroxy-3-(pyrrolidin-1-yl)propan-2-yl)-2-(2,3-dihydro-1H-inden-2-yl)-N-(methyl-d3)acetamide] | – | – | 11 nM | 15 min | 742 ng·h/mL | 366 ng·h/mL
